Assay results taken from PubChem BioAssay (NCI).
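Cultured in 96-well plates, cells were exposed to test compound for 48 hours across five concentrations. GI50 is the concentration that inhibits growth by half. TGI: total growth inhibition.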

Columns and labels:
Test in all cases: NCI anticancer screen, dose series, 48 h
HT29 colon = tested on: HT29 colon
786-0 renal = tested on: 786-0 renal
MDA-MB-468 breast = tested on: MDA-MB-468 breast
SF-539 CNS = tested on: SF-539 CNS
OVCAR-5 ovarian = tested on: OVCAR-5 ovarian
SF-268 CNS = tested on: SF-268 CNS
HOP-62 NSCLC = tested on: HOP-62 NSCLC
RXF 393 renal = tested on: RXF 393 renal
HL-60(TB) leukemia = tested on: HL-60(TB) leukemia
K-562 leukemia = tested on: K-562 leukemia
UO-31 renal = tested on: UO-31 renal
HOP-92 NSCLC = tested on: HOP-92 NSCLC
A549 NSCLC = tested on: A549 NSCLC
CAKI-1 renal = tested on: CAKI-1 renal
SF-295 CNS = tested on: SF-295 CNS
SNB-19 CNS = tested on: SNB-19 CNS
UACC-257 melanoma = tested on: UACC-257 melanoma
ACHN renal = tested on: ACHN renal
HCT-15 colon = tested on: HCT-15 colon
OVCAR-4 ovarian = tested on: OVCAR-4 ovarian
NCI-H522 lung = tested on: NCI-H522 lung
EKVX NSCLC = tested on: EKVX NSCLC
SK-MEL-2 melanoma = tested on: SK-MEL-2 melanoma
SK-OV-3 ovarian = tested on: SK-OV-3 ovarian
LOX IMVI melanoma = tested on: LOX IMVI melanoma
CCRF-CEM leukemia = tested on: CCRF-CEM leukemia
NCI/ADR-RES ovarian = tested on: NCI/ADR-RES ovarian
DU-145 prostate = tested on: DU-145 prostate
KM12 colon = tested on: KM12 colon
SW-620 colon = tested on: SW-620 colon
T-47D breast = tested on: T-47D breast
OVCAR-3 ovarian = tested on: OVCAR-3 ovarian
TK-10 renal = tested on: TK-10 renal
IGROV1 ovarian = tested on: IGROV1 ovarian
OVCAR-8 ovarian = tested on: OVCAR-8 ovarian
UACC-62 melanoma = tested on: UACC-62 melanoma
HCC-2998 colon = tested on: HCC-2998 colon
PC-3 prostate = tested on: PC-3 prostate
RPMI-8226 leukemia = tested on: RPMI-8226 leukemia
MALME-3M melanoma = tested on: MALME-3M melanoma
MDA-MB-435 = tested on: MDA-MB-435
MOLT-4 leukemia = tested on: MOLT-4 leukemia
MCF7 breast = tested on: MCF7 breast
SK-MEL-28 melanoma = tested on: SK-MEL-28 melanoma
M14 melanoma = tested on: M14 melanoma
BT-549 breast = tested on: BT-549 breast
A498 renal = tested on: A498 renal
MDA-MB-231 breast = tested on: MDA-MB-231 breast
SK-MEL-5 melanoma = tested on: SK-MEL-5 melanoma
HS 578T breast = tested on: HS 578T breast
SNB-75 CNS = tested on: SNB-75 CNS
NCI-H226 lung = tested on: NCI-H226 lung
NCI-H23 lung = tested on: NCI-H23 lung

SMILES: CN1CCCN(Cc2ccc(C(=O)Nc3cccc(Nc4ccc5c(O)cccc5n4)c3)cc2C(F)(F)F)CC1
- GI50 (HT29 colon): 1.92 µM
- TGI (HT29 colon): 3.76 µM
- GI50 (786-0 renal): 2.06 µM
- TGI (786-0 renal): 3.8 µM
- GI50 (MDA-MB-468 breast): 1.66 µM
- TGI (MDA-MB-468 breast): 3.13 µM
- GI50 (SF-539 CNS): 1.7 µM
- TGI (SF-539 CNS): 3.12 µM
- GI50 (OVCAR-5 ovarian): 11.4 µM
- TGI (OVCAR-5 ovarian): 23.9 µM
- GI50 (SF-268 CNS): 2.14 µM
- TGI (SF-268 CNS): 5.24 µM
- GI50 (HOP-62 NSCLC): 2.03 µM
- TGI (HOP-62 NSCLC): 4.58 µM
- GI50 (RXF 393 renal): 1.85 µM
- TGI (RXF 393 renal): 3.71 µM
- GI50 (HL-60(TB) leukemia): 2.35 µM
- TGI (HL-60(TB) leukemia): 5.52 µM
- GI50 (K-562 leukemia): 2.18 µM
- TGI (K-562 leukemia): > 100 µM
- GI50 (UO-31 renal): 2.04 µM
- TGI (UO-31 renal): 4.96 µM
- GI50 (HOP-92 NSCLC): 1.64 µM
- TGI (HOP-92 NSCLC): 4.41 µM
- GI50 (A549 NSCLC): 3.63 µM
- TGI (A549 NSCLC): 15.1 µM
- GI50 (CAKI-1 renal): 1.8 µM
- TGI (CAKI-1 renal): 3.94 µM
- GI50 (SF-295 CNS): 1.67 µM
- TGI (SF-295 CNS): 3.07 µM
- GI50 (SNB-19 CNS): 2.03 µM
- TGI (SNB-19 CNS): 3.91 µM
- GI50 (UACC-257 melanoma): 1.6 µM
- TGI (UACC-257 melanoma): 3.2 µM
- GI50 (ACHN renal): 1.92 µM
- TGI (ACHN renal): 3.74 µM
- GI50 (HCT-15 colon): 1.93 µM
- TGI (HCT-15 colon): 4.04 µM
- GI50 (OVCAR-4 ovarian): 3.83 µM
- TGI (OVCAR-4 ovarian): 15.4 µM
- GI50 (NCI-H522 lung): 1.84 µM
- TGI (NCI-H522 lung): 3.51 µM
- GI50 (EKVX NSCLC): 1.82 µM
- TGI (EKVX NSCLC): 3.5 µM
- GI50 (SK-MEL-2 melanoma): 1.81 µM
- TGI (SK-MEL-2 melanoma): 3.46 µM
- GI50 (SK-OV-3 ovarian): 11.1 µM
- TGI (SK-OV-3 ovarian): 27.1 µM
- GI50 (LOX IMVI melanoma): 1.63 µM
- TGI (LOX IMVI melanoma): 2.99 µM
- GI50 (CCRF-CEM leukemia): 2.07 µM
- TGI (CCRF-CEM leukemia): > 100 µM
- GI50 (NCI/ADR-RES ovarian): 6.43 µM
- TGI (NCI/ADR-RES ovarian): 68.5 µM
- GI50 (DU-145 prostate): 3.27 µM
- TGI (DU-145 prostate): 10.1 µM
- GI50 (KM12 colon): 1.98 µM
- TGI (KM12 colon): 3.99 µM
- GI50 (SW-620 colon): 1.95 µM
- TGI (SW-620 colon): 3.44 µM
- GI50 (T-47D breast): 3.46 µM
- TGI (T-47D breast): 13.3 µM
- GI50 (OVCAR-3 ovarian): 1.97 µM
- TGI (OVCAR-3 ovarian): 4.41 µM
- GI50 (TK-10 renal): 2.8 µM
- TGI (TK-10 renal): 8.95 µM
- GI50 (IGROV1 ovarian): 2.56 µM
- TGI (IGROV1 ovarian): 6.88 µM
- GI50 (OVCAR-8 ovarian): 2.51 µM
- TGI (OVCAR-8 ovarian): 6.22 µM
- GI50 (UACC-62 melanoma): 1.69 µM
- TGI (UACC-62 melanoma): 3.13 µM
- GI50 (HCC-2998 colon): 1.8 µM
- TGI (HCC-2998 colon): 3.19 µM
- GI50 (PC-3 prostate): 1.87 µM
- TGI (PC-3 prostate): 5.73 µM
- GI50 (RPMI-8226 leukemia): 2.89 µM
- TGI (RPMI-8226 leukemia): 9.36 µM
- GI50 (MALME-3M melanoma): 1.7 µM
- TGI (MALME-3M melanoma): 3.14 µM
- GI50 (MDA-MB-435): 1.78 µM
- TGI (MDA-MB-435): 3.6 µM
- GI50 (MOLT-4 leukemia): 2.11 µM
- TGI (MOLT-4 leukemia): 6.94 µM
- GI50 (MCF7 breast): 1.68 µM
- TGI (MCF7 breast): 3.2 µM
- GI50 (SK-MEL-28 melanoma): 1.82 µM
- TGI (SK-MEL-28 melanoma): 3.27 µM
- GI50 (M14 melanoma): 1.89 µM
- TGI (M14 melanoma): 4.49 µM
- GI50 (BT-549 breast): 1.8 µM
- TGI (BT-549 breast): 3.28 µM
- GI50 (A498 renal): 15.3 µM
- TGI (A498 renal): 29 µM
- GI50 (MDA-MB-231 breast): 1.65 µM
- TGI (MDA-MB-231 breast): 3.18 µM
- GI50 (SK-MEL-5 melanoma): 1.72 µM
- TGI (SK-MEL-5 melanoma): 3.09 µM
- GI50 (HS 578T breast): 1.93 µM
- TGI (HS 578T breast): 4.85 µM
- GI50 (SNB-75 CNS): 1.32 µM
- TGI (SNB-75 CNS): 7.46 µM
- GI50 (NCI-H226 lung): 16.7 µM
- TGI (NCI-H226 lung): 46.8 µM
- GI50 (NCI-H23 lung): 1.78 µM
- TGI (NCI-H23 lung): 3.31 µM
